For this experiment, the species on record is Rattus norvegicus. The experiment in a line: Compound was tested for inhibition of mitochondrial electron transport. The class given is functional.

As a reminder, the IC50 is the midpoint of a concentration-inhibition curve. Higher therefore signals lower potency.

For `CN(c1ccccc1)N1C(=O)O[C@@](C)(c2ccc(Oc3ccccc3)cc2)C1=O`, the IC50 was determined as 35 nM. Next, `C[C@@]1(c2ccc(Oc3ccccc3)cc2)OC(=O)N(Nc2ccccc2)C1=O` [FAMOXADONE]: 11 nM.

The record behind these values is ChEMBL document CHEMBL1132873, “Synthesis and structural analysis of the active enantiomer of famoxadone, a potent inhibitor of cytochrome bc1” (Bioorg Med Chem Lett, 2000).
